Consider five molecules from patent publication US20100041672A1, “USE OF QUINOLINE DERIVATIVES IN THE TREATMENT OF PAIN AND IRRITABLE BOWEL SYNDROME” (GLAXO GROUP LIMITED, priority 2007, published 2010).

Assay [1] deals with rats. Description: FCA induced hypersensitivity rat model (intraplantar FCA, weight bearing). The assay is classed as in vivo. The settings on record: 1 hour post dose; for weight bearing % reversal: 10 mg/kg p.o., 24 hrs after FCA. As for the experimental part:
(§1) Naïve weight bearing readings were taken. The hypersensitivity to pain was measured using the Rat incapacitance tester (Linton instruments). All rats (180-220 g) received an intraplantar injection of 100 ul of FCA (Freund's complete adjuvant) into the left hind paw. The FCA was sonicated for 15 minutes prior to use. 24 hrs after administration of the FCA, pre-dose weight bearing readings were taken. All animals were then ranked and randomised for dosing according to their FCA window (predose difference in grams—naïve difference in grams). Rats with FCA window less than 30 were excluded from the study.
Animals were then dosed orally with either vehicle, SB42457 (0.01, 0.1, 1 and 10 mg/kg p.o.) or celecoxib (10 mg/kg p.o.) as appropriate according to ranking and randomisation. Animals were assessed in the weight bearing apparatus 1 hour post dose.
The study was blind and randomised by FCA window using the Latin square method. % reversals were calculated by using the naïve, pre-dose and post dose values as follows: % Reversal=[(Pre-dose−Post-dose)/(Pre-dose−Naïve)]×100.
Graphs were plotted using Prism3. Statistical analysis was carried out using ANOVA and Fischer LSD test from statistical package Statistica 6.
In this study a positive control was also tested (celecoxib).
as §1, with “(200-220” for “(180-220”
Animals were then dosed orally with vehicle, SB-792988-A (0.01, 0.1, 1 and 10 mg/kg p.o.), SB-399885-A (10 mg/kg p.o.) or celecoxib (10 mg/kg p.o.) as appropriate according to ranking and randomisation. Animals were assessed in the weight bearing apparatus 1 hour post dose.
Graphs and were plotted using Prism3. Statistical analysis was carried out using ANOVA and Fischer LSD test from statistical package Statistica 6.

The next assay deals with male Sprague Dawley rats. The assay can be described thus: rat intra rectal mustard oil model of visceral pain. The assay is classed as in vivo. The settings on record: behaviours counted 25 minutes. As for the experimental part: All behavioural responses consistent with the presence of pain were determined following intra rectal injection of mustard oil in male Sprague Dawley rats. Typical behavioural responses consistent with the presence of pain following intra-colonic mustard oil injection include: arching, abdominal lifting, abdominal tensing, stretching, extending the rear leg (when lying down), raising and lowering the testicles, tip-toeing and writhing.
Male Sprague Dawley rats (130 g-160 g) were briefly sedated with 50% oxygen/50% carbon dioxide and 0.2 ml of 3% mustard oil injected into the colorectum, 1.5 cm from the anus. The anus was plugged with vaseline and animals placed in observational cages to which they had previously been acclimatised for 45 minutes prior to mustard oil injection. The number of visceral pain related behaviours, which consisted primarily of abdominal arching, were counted over a 25 minute period and the animals culled by cervical dislocation.
In separate studies, the effects of alosetron (0.1, 0.3 and 1.0 mg/kg n=10 per group), gabapentin (10, 30 and 100 mg/kg n=10 per group) and amitriptyline (3, 10 and 30 mg/kg n=9-10 per group) or vehicle (saline for alosetron and amitriptyline 10% 1-Methyl-2-pyrolidone in saline for gabapentin n=10 per study) given sub cutaneously 15 minutes prior to injection of 3% mustard oil were examined on pain behaviour. Results in FIGS. 4, 5 and 6 are expressed as mean±sem percentage of behaviours compared to vehicle treated animals and were statistically compared to vehicle treated animals using a one way ANOVA with Dunnett's comparison, p<0.05 considered significant.
The effect of SB742457 (0.03, 0.1, 1.0, 3.0 and 10 mg/kg, n=10 per group for the 0.03, 0.1 and 10 mg/kg groups, and n=20 for the 1.0 and 3.0 mg/kg groups) or vehicle (saline n=20) given orally 60 minutes prior to injection of mustard oil (3% mustard oil, 70% ethanol in saline) were examined on pain behaviour. The total number of visceral pain related behaviours, which consisted primarily of abdominal arching, were counted over a 25 minute period and the animals culled by cervical dislocation. Behaviours were normalised as the percentage of the vehicle group mean and expressed as mean+/−sem. Data was combined from two studies and normalised as the percentage of the vehicle group mean for each individual study and expressed as mean+/−sem for both studies. Percentage of behaviours compared to vehicle treated animals were analysed statistically using a one way ANOVA with Dunnett's comparison, p<0.05 considered significant, FIG. 10.
The effect of SB792988A (0.03, 0.1, 0.3, 1.0, 3.0 and 10 mg/kg, n=9 for 1.0 mg/kg, n=10 per group for the 0.03, 0.1 and 3.0 mg/kg groups, n=20 per group for the 0.3 and 10 mg/kg groups) or vehicle (saline n=20) given orally 60 minutes prior to injection of mustard oil (3% mustard oil, 70% ethanol in saline) were examined on pain behaviour. The total number of visceral pain related behaviours, which consisted primarily of abdominal arching, were counted over a 25 minute period and the animals culled by cervical dislocation. Behaviours were normalised as the percentage of the vehicle group mean and expressed as mean+/−sem. Data was combined from two studies and normalised as the percentage of the vehicle group mean for each individual study and expressed as mean+/−sem for both studies. Percentage of behaviours compared to vehicle treated animals were analysed statistically using a one way ANOVA with Dunnett's comparison, p<0.05 considered significant, FIG. 11.

Another assay has as its system Random Hooded rats. The assay can be described thus: rat joint pain model of chronic inflammatory pain (intra-articular FCA, hind paw weight bearing). The format is in vivo. The settings on record: for Statistics for hypersensitivity data (weight bearing), significance vs vehicle, Day 14: Day 14 post FCA; for Statistics for hypersensitivity data (weight bearing), significance vs vehicle, Day 15: Day 15 post FCA; for Statistics for hypersensitivity data (weight bearing), significance vs vehicle, Day 17: Day 17 post FCA. The method, then: Random Hooded rats, 150-180 g, obtained from Charles River UK, were anaesthetised under gaseous anaesthetic and the area surrounding the left and right knee joint shaved and cleaned as for aseptic surgery. Animals were injected with 150 μl of FCA into the left knee joint (intra-articular injection). Animals were immediately allowed to recover from anaesthetic in a warmed/oxygenated environment until being returned to their home cage on paper bedding. No further post-op care was provided.
Rats were tested prior to surgery and from 18 h post FCA (minimum of once weekly) for weight bearing (g) and joint diameter (mm). Weight bearing is measured by the animal's ability to place body weight across both hind paws on a Dual Channel Weight Averager which was calibrated each day prior to use using a 10 g weight (Rat capacitance tester—Linton Instruments). Hind paw weight bearing data was calculated and expressed as the percentage of the contralateral paw.
All data were expressed as mean±s.e.m.
Prior to FCA intra-articular injection into the left knee, rats display even weight bearing. By day 1 post-insult weight bearing had shifted such that the majority of the body weight was transmitted through the contralateral limb. By day 10 this effect was maintained and at this point animals were randomised across treatment groups. Once daily dosing with vehicle, SB742457 or celecoxib began on day 13 and continued up to and including day 17.
Rats were tested prior to surgery and from 18 h post FCA (minimum of once weekly) for weight bearing (g) and joint diameter (mm). Weight bearing is measured by the animal's ability to place body weight across both hind paws on a Dual Channel Weight Averager which was calibrated each day prior to use using a 100 g weight (Rat capacitance tester—Linton Instruments). Hind paw weight bearing data was calculated and expressed as the percentage of the contralateral paw.
Prior to FCA intra-articular injection into the left knee, rats display even weight bearing. By day 1 post-insult weight bearing had shifted such that the majority of the body weight was transmitted through the contralateral limb. By day 10 this effect was maintained and at this point animals were randomised across treatment groups. Once daily dosing with vehicle, SB792988A or celecoxib began on day 13 and continued up to and including day 17. […] AUC was calculated using Microsoft Excel.

Assay [2] has as its system rats. The assay can be described thus: Chronic Constriction Injury (CCI) model of neuropathic pain in rats (mechanical allodynia, Von Frey hairs). The assay is classed as in vivo, rat. Conditions: 30 mg/kg b.i.d. po. The method, then:
Under Isoflurane anaesthesia, the sciatic nerve in the left leg of the rat was exposed at mid thigh level and 4 loose ligatures of Chromic 4.0 gut tied around it. The wound was closed and secured with staples. The Sham operated animals underwent the same surgical technique except that the nerve was not ligated. […] The presence of mechanical (tactile) allodynia was assessed using the manual application of Von Frey hair monofilaments (Stoelting, Wood Dale, Ill., USA). Animals were placed in clear Perspex boxes on a raised perforated metallic platform, from below which the monofilaments were applied in ascending order to the plantar region of the hind paw (range: 1.4 g-26 g). Each hair was applied for approx. 3-5 seconds until a withdrawal response was observed. The lowest hair to give a withdrawal was recorded as the response after confirmation with reapplication of lower and/or higher hairs within the range tested.
All data are expressed as mean±s.e.m. Statistical analysis was carried out using Repeated Measures ANOVA (Statistica Version 6) to compare the vehicle treated groups with the drug treated groups (P<0.05 considered significant). Area Under Curve (AUC) calculations were performed within Excel and statistical analysis was carried out using a one-way ANOVA followed by Fischer LSD post-hoc test (Statistica Version 6) to compare the vehicle treated CCI and Sham groups with the drug treated groups (P<0.05 considered significant). Data recorded in Excel (Microsoft XP) and graphs produced in GraphPad Prism (Version 4).
By 8 days post-surgery neuropathy was beginning to develop as mechanical allodynia (assessed using mVFHs) was evident in all CCI operated groups compared to the Sham operated animals. This was maintained as a stable baseline until day 23 post-surgery (FIG. 12), when the animals were randomised and then chronically dosed with either SB742457 (10 mg/kg b.i.d. po), gabapentin (30 mg/kg b.i.d. po) or vehicle (1% methylcellulose; b.i.d. po) for 8 days (days 26-33 post-surgery). […] Three days after cessation of treatment the withdrawal thresholds of the drug treated groups had decreased back towards vehicle treated baseline levels.

Where [3] appears, read: 10 mg/kg sub cutaneously 15 minutes prior to 3% mustard oil.
[4] abbreviates: 30 mg/kg sub cutaneously 15 minutes prior to 3% mustard oil.
[5] abbreviates: 30 mg/kg oral once daily from day 13, SB742457 study.
Setting [6] is: 30 mg/kg oral once daily from day 13, SB792988A study.

As for `COc1ccc(S(=O)(=O)Nc2cc(Cl)cc(Cl)c2OC)cc1N1CCNCC1.Cl` [SB399885A, N-(3,5-dichloro-2-methoxy-phenyl)-4-methoxy-3-piperazin-1-yl-benzenesulfonamide hydrochloride, reference compound], the “weight bearing % reversal” value with rats [1] (Table 7) came to 15.26 ± 5.70%. For the same molecule, in the assay on rats [1] (p.o., intraplantar FCA), the “effect on FCA induced hypersensitivity” value is recorded as “no effect”.
Regarding `Cc1[nH]cnc1CN1CCc2c(c3ccccc3n2C)C1=O` [alosetron, reference compound], the “reduction in behaviours compared to vehicle treated animals” value (shortened to “reduction in behaviours”) is recorded as 56% in the assay on male Sprague Dawley rats (0.1 mg/kg sub cutaneously 15 minutes prior to 3% mustard oil), 56% in the assay on male Sprague Dawley rats (0.3 mg/kg sub cutaneously 15 minutes prior to 3% mustard oil) and 54% with male Sprague Dawley rats (1.0 mg/kg sub cutaneously 15 minutes prior to 3% mustard oil).
For the molecule `CN(C)CCC=C1c2ccccc2CCc2ccccc21` [amitriptyline, reference compound], the “reduction in behaviours” value with male Sprague Dawley rats (3 mg/kg sub cutaneously 15 minutes prior to 3% mustard oil) is reported as 43%; with male Sprague Dawley rats (setting [3]), 73%; in the assay on male Sprague Dawley rats (setting [4]) it was 91%.
In the case of `Cc1ccc(-c2cc(C(F)(F)F)nn2-c2ccc(S(N)(=O)=O)cc2)cc1` [celecoxib, reference compound], the “Statistics for hypersensitivity data, significance vs vehicle, AUC” value in the assay on Random Hooded rats (30 mg/kg oral once daily days 13-17, AUC, SB742457 study) was “*** (*** = p < 0.001)”. For the same molecule, the “Statistics for hypersensitivity data (weight bearing), significance vs vehicle, Day 13” value in the assay with Random Hooded rats (30 mg/kg oral once daily from day 13, Day 13 post FCA, SB742457 study) is given as “* (* = p < 0.05)”. The “Statistics for hypersensitivity data (weight bearing), significance vs vehicle, Day 14” value with Random Hooded rats (setting [5]) is “*** (*** = p < 0.001)”; in the assay with Random Hooded rats (setting [6]) it was “* (* = p < 0.05)”. The “Statistics for hypersensitivity data (weight bearing), significance vs vehicle, Day 15” value in the assay on Random Hooded rats (setting [5]) and in the assay with Random Hooded rats (setting [6]) was “*** (*** = p < 0.001)” each time. For the same molecule, in the assay on Random Hooded rats (30 mg/kg oral once daily from day 13, Day 16 post FCA, SB792988A study), the “Statistics for hypersensitivity data (weight bearing), significance vs vehicle, Day 16” value was “*** (*** = p < 0.001)”. Besides, the “Statistics for hypersensitivity data (weight bearing), significance vs vehicle, Day 17” value with Random Hooded rats (setting [5]) and with Random Hooded rats (setting [6]) was “*** (*** = p < 0.001)” each time. For the same molecule, the “weight bearing % reversal” value in the assay with rats [1] (Table 5) is listed as 74.81 ± 8.79%; in the assay with rats [1] (Table 7) it was 73.00 ± 6.01%.
On to `NCC1(CC(=O)O)CCCCC1` [gabapentin, reference compound], for which the “reversal of mechanical allodynia after 5 days of dosing” value in the assay with rats [2] (after 5 days of dosing) is “not significantly different to Sham levels”. Moreover, the “reversal of mechanical allodynia after 8 days of dosing” value with rats [2] (after 8 days of dosing) is recorded as “maximal reversal (P<0.001) back to Sham levels”. Moreover, the figures for the “reduction in behaviours” value in the assay on male Sprague Dawley rats (setting [3]), in the assay with male Sprague Dawley rats (setting [4]) and in the assay with male Sprague Dawley rats (100 mg/kg sub cutaneously 15 minutes prior to 3% mustard oil) were 28%, 50% and 69%, respectively.
